What was measured:
mGlu1 receptor [1] = conditions: literature; cited from earlier work
rat mGlu1a receptor [2] = biological target: T1, rat mGlu1a receptor (Rattus norvegicus, UniProt P23385); test: [3H]Compound A binding to rat mGlu1a receptor CHO-dhfr− membranes (saturation, kinetics, inhibition)
T1 construct: host or cells: CHO-dhfr- cells

rat mGlu1a receptor [3] = biological target: T1, rat mGlu1a receptor; test: Intracellular Ca2+ response in rat mGlu1a receptor expressing CHO-dhfr− cells (FLIPR); format: cell-based; conditions: CHO-dhfr− cells expressing rat mGlu1a; glutamate 30 μM; read-out: IC50, inhibition of the glutamate-induced increase in [Ca2+]i
mGlu1 receptor [4] = biological target: T2, mGlu1 receptor (Rattus norvegicus, UniProt P23385); test: [3H]Compound A binding and autoradiography on rat brain sections; conditions: 10 μM (FIG. 10, panel C)
Experimental: Tissue preparation. Male Wistar rats (200 g) were sacrificed by decapitation. Brains were immediately removed from the skull and were rapidly frozen in dry-ice-cooled 2-methylbutane (−40° C.). Brains were then stored at −70° C. until sectioning. Twenty-micrometer-thick sagittal sections were cut using a Leica C3050 cryostat microtome (Leica Microsystems, Wetzlar, Germany) and thaw-mounted on SuperFrost Plus microscope slides (Menzle-glaser, Germany). The sections were then kept at −70° C. until use.
Receptor autoradiography. Sections were thawed and dried under a stream of cold air, preincubated (3×5 min) in 50 mM Tris-HCl, 1.2 mM MgCl2, 2 mM CaCl2, 0.1% BSA pH 7.4 at room temperature. […] After the incubation, the excess of radioligand was washed off (3×5 min) in ice-cold buffer containing 50 mM Tris-HCl, 1.2 mM MgCl2 and 2 mM CaCl2, followed by a rapid dip in cold distilled water. The sections were dried under a stream of cold air and then exposed to [^3H]Hyperfilm (Amersham, UK) for 6 weeks at room temperature. The films were developed manually in Kodak D19 and fixed with Kodak Readymatic. Some sections were exposed to a Fuji Imaging Plate for 2 days at room temperature and scanned using a Fujix Bass 2000 phosphoimager.

rat mGlu1a receptor [5] = biological target: T1, rat mGlu1a receptor; test: [3H]quisqualate binding to rat mGlu1a receptor CHO-dhfr− membranes (saturation, inhibition); conditions: rat mGlu1a receptor CHO-dhfr− membranes
mGlu1 receptor [6] = biological target: T2, mGlu1 receptor; test: [3H]Compound A binding to rat brain membranes (cortex, hippocampus, striatum, cerebellum); conditions: 10 μM; 2.5 nM [3H]Compound A (FIG. 9)
Experimental: Tissue preparation. Male Wistar rats (˜200 g) were sacrificed by decapitation. The brains were rapidly removed and cortex, hippocampus, striatum and cerebellum were immediately dissected. The fresh tissue was homogenized with an Ultra Turrax in 20 volumes of 50 mM Tris-HCl, pH 7.4 and tissue was centrifuged at 23,500 g for 10 min. After homogenisation using a DUAL homogeniser, membranes were washed twice by centrifugation at 23,500 g for 10 min. The final pellet was suspended in 10 volumes of 50 mM Tris-HCl, pH 7.4 and frozen at −80° C.
In vitro binding assay. After thawing, membranes from rat cortex, cerebellum, striatum and hippocampus were rehomogenized using a DUAL and suspended in ice-cold binding buffer containing 50 mM Tris-HCl, 1.2 mM MgCl2, 2 mM CaCl2, pH 7.4. The binding assay was carried out in a total volume of 0.5 ml containing 2.5 nM [^3H]Compound A and a membrane aliquot corresponding to 40 μg for cerebellar membranes, 60 μg for hippocampal membranes, 80 μg for striatal membranes or 150 μg for cortical membranes. […] After incubation for 30 min at 4° C., the labelled membranes were washed and harvested by rapid vacuum filtration over Whatman GF/C glass-fibre filters using a 40-well filtration manifold and radioactivity collected on the filters was counted as above.
Data analysis was performed using the GraphPad Prism program (GraphPad Prism Software, Inc., San Diego, Calif.). Saturation binding experiments were analysed using a non-linear regression analysis. Inhibition curves were fitted using non-linear regression analysis fitting the one-site competition equation: Y=Bottom+((Top−Bottom)/1+10^X-LogIC50). Ki values were calculated using the Cheng-Prusoff equation: Ki=IC50/[1+([C]/KD)] where C is the concentration of radioligand and KD is the dissociation constant of the radioligand (Cheng and Prusoff, Biochem. Pharmacol. 22, 3099-3108, 1973). The observed on (kob) and off (koff) rate were calculated from association-dissociation curves using the one-phase-exponential association and decay equations in the Prism program, respectively. kon was calculated by subtracting koff from kob and dividing by the radioligand concentration. The two-tailed Student's t-test was used for statistical evaluation of the binding data: * p<0.05, ** p<0.01 and *** p<0.001. The Dunnett's t-test following a 2-way analysis of variance (with as factors compound concentration and experiment) were used to analyse the data from the IP experiments.

T1 sequence (P23385 19-1199): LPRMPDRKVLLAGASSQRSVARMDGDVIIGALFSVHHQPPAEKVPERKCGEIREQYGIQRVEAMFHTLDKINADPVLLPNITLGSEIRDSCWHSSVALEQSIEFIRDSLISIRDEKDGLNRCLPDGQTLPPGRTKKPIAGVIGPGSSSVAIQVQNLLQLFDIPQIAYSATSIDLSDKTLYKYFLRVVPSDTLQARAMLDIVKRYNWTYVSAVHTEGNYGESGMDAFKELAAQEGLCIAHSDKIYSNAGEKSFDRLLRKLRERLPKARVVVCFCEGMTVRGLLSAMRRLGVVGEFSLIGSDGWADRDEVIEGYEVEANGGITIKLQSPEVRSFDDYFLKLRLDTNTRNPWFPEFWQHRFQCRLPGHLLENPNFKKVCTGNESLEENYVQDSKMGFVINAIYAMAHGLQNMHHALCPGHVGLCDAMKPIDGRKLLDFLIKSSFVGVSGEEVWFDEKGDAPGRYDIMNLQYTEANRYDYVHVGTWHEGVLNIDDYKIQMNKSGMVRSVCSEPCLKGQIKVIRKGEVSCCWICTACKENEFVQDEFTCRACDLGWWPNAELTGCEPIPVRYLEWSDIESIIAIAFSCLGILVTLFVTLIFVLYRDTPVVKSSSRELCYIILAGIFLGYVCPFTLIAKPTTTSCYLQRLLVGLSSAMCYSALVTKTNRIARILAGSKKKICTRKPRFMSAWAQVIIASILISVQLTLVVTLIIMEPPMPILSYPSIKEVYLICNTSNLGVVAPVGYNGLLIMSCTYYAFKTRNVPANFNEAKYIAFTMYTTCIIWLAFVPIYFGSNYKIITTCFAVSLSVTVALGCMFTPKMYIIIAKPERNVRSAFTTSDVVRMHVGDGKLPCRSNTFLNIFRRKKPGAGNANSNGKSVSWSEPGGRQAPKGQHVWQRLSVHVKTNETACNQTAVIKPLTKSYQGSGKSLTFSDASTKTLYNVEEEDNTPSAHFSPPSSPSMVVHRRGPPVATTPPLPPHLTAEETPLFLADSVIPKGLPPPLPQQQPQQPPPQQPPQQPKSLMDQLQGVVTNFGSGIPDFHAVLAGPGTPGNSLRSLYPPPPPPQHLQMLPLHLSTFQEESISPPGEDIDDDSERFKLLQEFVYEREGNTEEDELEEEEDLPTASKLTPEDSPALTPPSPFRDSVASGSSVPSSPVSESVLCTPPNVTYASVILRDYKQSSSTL

C=C1C[C@@H]2COC(=O)[C@]2(Cc2ccc3ccccc3c2)C1 [BAY 36-7620, reference compound]
potency of mGlu1 receptor block (mGlu1 receptor [1]): 0.16 µM
Ki (rat mGlu1a receptor [2]; 2.5 nM [3H]Compound A, 30 min at 4° C., mean ± SD of 3–4 experiments): 11.2 ± 0.93 nM
Hill coefficient (rat mGlu1a receptor [2]; inhibition of [3H]Compound A-binding, mean ± SD of 3–4 experiments): 0.95 ± 0.02
inhibition of [3H]Compound A binding (in words) (rat mGlu1a receptor [2]; rat mGlu1a receptor CHO-dhfr− membranes): nanomolar concentrations
IC50 (rat mGlu1a receptor [3]): 0.161 ± 0.038 µM
inhibition of [3H]Compound A binding to rat brain sections (mGlu1 receptor [4]): completely inhibited
Ki (rat mGlu1a receptor [5]; inhibition of [3H]quisqualate binding, mean ± SD of 2 experiments): > 1000 µM
effect on [3H]quisqualate binding (in words) (rat mGlu1a receptor [5]): did not affect
inhibition of [3H]Compound A binding to rat cerebellar membranes (mGlu1 receptor [6]): maximally inhibited

Reference: patent US7517517B2 (Janssen Pharmaceutica N.V., priority 2002, dated 2009)
